Source: patent publication US12447153B2, “HER2 mutation inhibitors” (Array BioPharma Inc., priority 2021, dated 2025)

Key:
MDR1 (P-gp) = MDR1 (P-gp) (Homo sapiens (Human), UniProt P08183); experiment: in vitro; conditions: pig, LLC-PK1
Protocol: Both LLC-PK1 and MDR1 transfected LLC-PK1 cells were cultured and plated according to manufacturer's recommendations with the exception that the passage media contained only 2% fetal bovine serum so as to extend passage time out to seven days.
Both positive and negative controls were used to assess functionality of P-gp or BCRP efflux in the assays. Stock solutions for assay controls and the test article were prepared in DMSO for final test concentrations of 10 μM and 1 μM, respectively. Final organic concentration in the assay was 1%. All dosing solutions contained 10 μM lucifer yellow to monitor LLC PK1 or MDCKII cell monolayer integrity.
For the apical to basolateral determination (A to B), 75 μL of the test article in transport buffer were added to the apical side of the individual transwells and 250 μL of basolateral media, without compound or lucifer yellow, were added to each well. For the basolateral to apical determination (B to A), 250 μL of test article in transport buffer were added to each well and 75 μL transport buffer, without compound or lucifer yellow, were added to each transwell. All tests were performed in triplicate, and each compound was tested for both apical to basolateral and basolateral to apical transport. The plates were incubated for 2 hours on a Lab-Line Instruments Titer Orbital Shaker (VWR, West Chester, PA) at 50 rpm and 37° C. with 5% CO2. All culture plates were removed from the incubator, 50 μL of media were removed from the apical and basolateral portion of each well, and added to 150 μL of 1 μM labetalol in 2:1 acetonitrile (ACN): H2O, v/v.
The plates were read using a Molecular Devices (Sunnyvale, CA) Gemini Fluorometer to evaluate the lucifer yellow concentrations at excitation/emission wavelengths of 425/535 nm. These values were accepted when found to be below 2% for apical to basolateral and 5% basolateral to apical flux across the MDR1-transfected LLC-PK1 or BCRP-transfected MDCKII cell monolayers. The plates were sealed, and the contents of each well analyzed by LC MS/MS. The compound concentrations were determined from the ratio of the peak areas of the compound to the internal standard (labetalol) in comparison to the dosing solution.
The LC-MS/MS system was comprised of an HTS-PAL autosampler (Leap Technologies, Carrboro, NC), an HP1200 HPLC (Agilent, Palo Alto, CA), and a MDS Sciex 4000 Q Trap system (Applied Biosystems, Foster City, CA). […] The total run time, including re-equilibration, for a single injection was 1.2 minutes. Mass spectrometric detection of the analytes was accomplished using the ion spray positive mode. Analyte responses were measured by multiple reaction monitoring (MRM) of transitions unique to each compound (the protonated precursor ion and selected product ions for each test article and m/z 329 to m/z 162 for labetalol, the internal standard).
An efflux ratio is calculated from the mean apical to basolateral (A-B) Papp data and basolateral to apical (B-A) Papp data: Efflux ratio=Papp(B−A)/Papp(A−B)

[1] = molecular target: ErbB2 with Exon 20 YVMA insertion (HER2-YVMA) (Homo sapiens (Human), UniProt P04626, INS775YVMA); experiment: Cellular Phosphorylation Assay, Assay 4 (constitutive ErbB2 phosphorylation, NIH 3T3 cells); format: cell-based
BCRP = BCRP (Homo sapiens (Human), UniProt Q9UNQ0); experiment: BCRP MDCKII efflux assay (Assay 7); format: in vitro ADME; conditions: dog; efflux ratio Papp(B-A)/Papp(A-B), BCRP MDCKII cells; read-out: Assay 7 Pe Ratio
Protocol: Assay conditions included with and without the BCRP-specific inhibitor, KO143, at a concentration of 0.3 μM to ascertain the contribution of BCRP to the efflux value of the test compound.
Final organic concentration in the assay was 1%.

ErbB2 WT = ErbB2 WT (Homo sapiens (Human), UniProt P04626); experiment: ErbB Enzyme Assay (HTRF KinEASE-TK), Assay 2; format: biochemical
EGFR = EGFR (Homo sapiens (Human), UniProt P00533); experiment: ErbB Enzyme Assay (HTRF KinEASE-TK), Assay 3; format: biochemical
EGFR wild type (EGFR WT) = EGFR wild type (EGFR WT) (Homo sapiens (Human), UniProt P00533); experiment: Cellular Phosphorylation Assay, Assay 5 (EGF-stimulated EGFR phosphorylation, NIH 3T3 cells); format: cell-based
[2] = EGF-stimulated EGFR WT phosphorylation
[3] = cellular ErbB2 YVMA phosphorylation
[4] = cellular EGFR WT phosphorylation, EGF-stimulated

Chain of BCRP (Q9UNQ0 whole entry): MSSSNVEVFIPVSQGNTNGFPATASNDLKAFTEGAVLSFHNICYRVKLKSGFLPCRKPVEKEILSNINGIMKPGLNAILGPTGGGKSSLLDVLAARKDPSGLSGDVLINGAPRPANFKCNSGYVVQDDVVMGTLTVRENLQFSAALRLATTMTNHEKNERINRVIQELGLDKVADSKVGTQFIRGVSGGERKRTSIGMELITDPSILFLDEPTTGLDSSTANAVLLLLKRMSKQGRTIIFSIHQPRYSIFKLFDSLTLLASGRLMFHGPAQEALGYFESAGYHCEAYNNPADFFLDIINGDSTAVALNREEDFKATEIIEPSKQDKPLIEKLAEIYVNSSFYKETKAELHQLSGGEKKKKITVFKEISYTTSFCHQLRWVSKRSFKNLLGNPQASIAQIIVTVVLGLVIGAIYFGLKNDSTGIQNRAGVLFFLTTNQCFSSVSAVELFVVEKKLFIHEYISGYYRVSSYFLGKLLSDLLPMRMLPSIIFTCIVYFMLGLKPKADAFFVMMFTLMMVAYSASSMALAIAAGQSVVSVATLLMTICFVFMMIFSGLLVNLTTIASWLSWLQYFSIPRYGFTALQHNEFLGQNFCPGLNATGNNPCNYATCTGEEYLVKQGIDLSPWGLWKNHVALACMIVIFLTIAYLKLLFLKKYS
Chain of EGFR wild type (EGFR WT) (P00533 25-1210): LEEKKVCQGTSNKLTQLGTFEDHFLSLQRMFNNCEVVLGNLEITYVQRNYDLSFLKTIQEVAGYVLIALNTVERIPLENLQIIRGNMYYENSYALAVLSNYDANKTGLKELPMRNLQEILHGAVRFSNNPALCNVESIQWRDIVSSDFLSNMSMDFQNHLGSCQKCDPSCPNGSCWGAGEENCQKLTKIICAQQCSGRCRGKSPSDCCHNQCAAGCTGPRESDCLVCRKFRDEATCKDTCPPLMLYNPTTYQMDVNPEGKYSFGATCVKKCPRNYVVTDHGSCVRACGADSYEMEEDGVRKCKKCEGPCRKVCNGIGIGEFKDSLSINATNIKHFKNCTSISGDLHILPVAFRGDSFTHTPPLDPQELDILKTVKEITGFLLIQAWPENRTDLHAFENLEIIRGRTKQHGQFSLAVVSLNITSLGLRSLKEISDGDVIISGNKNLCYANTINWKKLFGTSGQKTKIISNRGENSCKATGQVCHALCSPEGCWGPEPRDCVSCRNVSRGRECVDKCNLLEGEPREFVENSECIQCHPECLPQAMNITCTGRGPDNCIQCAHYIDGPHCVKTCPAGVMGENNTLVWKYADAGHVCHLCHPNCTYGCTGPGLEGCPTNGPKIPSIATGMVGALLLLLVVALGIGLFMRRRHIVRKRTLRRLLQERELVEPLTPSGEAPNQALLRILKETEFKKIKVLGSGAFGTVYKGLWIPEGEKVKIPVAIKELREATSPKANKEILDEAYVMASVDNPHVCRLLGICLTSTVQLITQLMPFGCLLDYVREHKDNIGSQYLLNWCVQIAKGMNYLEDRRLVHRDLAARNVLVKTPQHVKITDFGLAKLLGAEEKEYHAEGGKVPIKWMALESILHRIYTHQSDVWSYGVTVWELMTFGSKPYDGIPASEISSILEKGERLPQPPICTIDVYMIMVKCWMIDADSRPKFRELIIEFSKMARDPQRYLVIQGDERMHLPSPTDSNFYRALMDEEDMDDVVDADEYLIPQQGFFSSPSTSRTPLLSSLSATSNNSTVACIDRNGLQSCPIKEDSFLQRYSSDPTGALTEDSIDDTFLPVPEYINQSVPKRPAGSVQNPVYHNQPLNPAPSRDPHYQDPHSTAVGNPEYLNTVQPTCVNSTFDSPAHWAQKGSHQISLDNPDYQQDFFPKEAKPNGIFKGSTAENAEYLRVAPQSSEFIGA
Chain of EGFR (P00533 25-1210): as above
Chain of ErbB2 with Exon 20 YVMA insertion (HER2-YVMA) (P04626 other isoform, or with tags, fused parts or gaps ins YVMA behind 775): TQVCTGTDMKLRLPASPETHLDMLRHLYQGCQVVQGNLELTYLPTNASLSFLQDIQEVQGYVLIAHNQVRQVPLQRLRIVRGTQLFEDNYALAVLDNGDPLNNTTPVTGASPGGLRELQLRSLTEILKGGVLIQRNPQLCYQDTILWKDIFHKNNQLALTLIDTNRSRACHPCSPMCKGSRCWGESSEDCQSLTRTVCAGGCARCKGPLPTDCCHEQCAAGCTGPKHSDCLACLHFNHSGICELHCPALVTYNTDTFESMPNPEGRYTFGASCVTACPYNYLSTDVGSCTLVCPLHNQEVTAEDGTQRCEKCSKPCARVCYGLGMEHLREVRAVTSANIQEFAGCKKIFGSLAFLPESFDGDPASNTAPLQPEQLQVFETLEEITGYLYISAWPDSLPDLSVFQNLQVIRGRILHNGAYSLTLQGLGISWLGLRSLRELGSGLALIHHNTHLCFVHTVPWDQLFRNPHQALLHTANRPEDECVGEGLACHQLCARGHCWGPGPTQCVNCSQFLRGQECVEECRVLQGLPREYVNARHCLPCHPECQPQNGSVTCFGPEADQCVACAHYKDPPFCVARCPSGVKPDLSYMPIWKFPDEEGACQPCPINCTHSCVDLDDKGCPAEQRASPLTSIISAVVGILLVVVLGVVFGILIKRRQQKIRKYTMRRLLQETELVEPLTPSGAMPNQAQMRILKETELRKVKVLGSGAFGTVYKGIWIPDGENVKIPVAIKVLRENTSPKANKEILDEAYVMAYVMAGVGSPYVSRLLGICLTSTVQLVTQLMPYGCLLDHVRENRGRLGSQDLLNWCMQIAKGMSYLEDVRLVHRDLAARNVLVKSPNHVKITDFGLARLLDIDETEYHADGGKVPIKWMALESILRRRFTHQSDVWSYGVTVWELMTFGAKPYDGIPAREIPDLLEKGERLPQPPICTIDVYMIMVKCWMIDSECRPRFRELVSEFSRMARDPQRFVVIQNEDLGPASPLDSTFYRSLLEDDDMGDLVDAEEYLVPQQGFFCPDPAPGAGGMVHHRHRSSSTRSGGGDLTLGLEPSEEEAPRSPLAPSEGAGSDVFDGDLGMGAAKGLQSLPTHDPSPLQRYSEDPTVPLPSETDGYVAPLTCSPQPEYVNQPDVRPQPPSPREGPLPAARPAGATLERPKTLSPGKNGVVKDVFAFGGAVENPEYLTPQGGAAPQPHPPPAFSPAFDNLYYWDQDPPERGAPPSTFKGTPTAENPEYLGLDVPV

Compound	efflux ratio at 2 h, 1 µM (MDR1 (P-gp))	IC50 ([1]; ErbB2 YVMA phosphorylation)	efflux ratio at 2 h, 1 µM (BCRP)	IC50 (ErbB2 WT; ErbB2 WT enzyme)	IC50 (EGFR; EGFR enzyme)	IC50 (EGFR wild type (EGFR WT); [2])	IC50 [1, 3]	IC50 (ErbB2 WT; ErbB2 WT enzyme assay)	IC50 (EGFR; EGFR enzyme assay)	IC50 (EGFR wild type (EGFR WT); [4])
C=CC(=O)N1CC[C@@H]2C[C@H]1CN2c1ccc2ncnc(Nc3ccc(Oc4ccn5ncnc5c4)c(C)c3F)c2n1 [Example 65, 1-((1S,5R)-6-(4-((4-([1,2,4]triazolo[1,5-a]pyridin-7-yloxy)-2-fluoro-3-methylphenyl)amino)pyrido[3,2-d]pyrimidin-6-yl)-2,6-diazabicyclo[3.2.1]octan-2-yl)prop-2-en-1-one]	1.4	4.2 nM	4	17.4 nM	170 nM	146 nM				
C=CC(=O)N1CCC(Oc2ccc3ncnc(Nc4ccc(Oc5cc6nn(C)cc6cn5)c(C)c4)c3n2)CC1 [Example 52, 1-(4-((4-((3-methyl-4-((2-methyl-2H-pyrazolo[4,3-c]pyridin-6-yl)oxy)phenyl)amino)pyrido[3,2-d]pyrimidin-6-yl)oxy)piperidin-1-yl)prop-2-en-1-one]	34.5	34.7 nM		395 nM	≥ 10000 nM	≥ 5000 nM				
C=CC(=O)N1[C@@H]2CC[C@H]1[C@H](c1ccc3ncnc(Nc4ccc(Oc5ccn6ncnc6c5)c(C)c4)c3n1)C2 (racemic) [Example 220, rac-1-((1 S,2R,4R)-2-(4-((4-([1,2,4]triazolo[1,5-a]pyridin-7-yloxy)-3-methylphenyl)amino)pyrido[3,2-d]pyrimidin-6-yl)-7-azabicyclo[2.2.1]heptan-7-yl)prop-2-en-1-one]	1.3	18.5 nM	2.2	17.9 nM	412 nM	≥ 5000 nM				
C=CC(=O)N1CCCC(c2ccc3ncnc(Nc4cc(C)c(Oc5ccn6ncnc6c5)cc4F)c3n2)CC1 (stereo not drawn) [Example 368]	1.4		2.7				34.7 nM	76.1 nM	9630 nM	≥ 5000 nM
C=CC(=O)N1[C@@H]2CCC[C@H]1[C@@H](c1ccc3ncnc(Nc4ccc(Oc5ccn6ncnc6c5)c(C)c4F)c3n1)C2 [Example 415]	1		1.8				32 nM	9.8 nM	247 nM	≥ 5000 nM
C=CC(=O)N1C[C@H](c2ccc3ncnc(Nc4ccc(Oc5ccc6c(c5)ncn6C)c(C)c4F)c3n2)C[C@H]1C [Example 193, 1-((2R,4R)-4-(4-((2-fluoro-3-methyl-4-((1-methyl-1H-benzo[d]imidazol-5-yl)oxy)phenyl)amino)pyrido[3,2-d]pyrimidin-6-yl)-2-methylpyrrolidin-1-yl)prop-2-en-1-one]	0.7	16 nM	3.4	61.8 nM	≥ 10000 nM	≥ 5000 nM				
C=CC(=O)N1CCCC(c2ccc3ncnc(Nc4ccc(Oc5cnc6c(c5)ncn6C)c(C)c4F)c3n2)CC1 (stereo not drawn) [Example 413]	1		2				24.6 nM	78.6 nM	2220 nM	≥ 5000 nM
C=CC(=O)N1CCN(c2ccc3ncnc(Nc4ccc(Oc5ccc6c(c5)ncn6C)c(Cl)c4F)c3n2)CC1(C)C [Example 262]	1.7		4.6				32.4 nM	18.9 nM	≥ 10000 nM	≥ 5000 nM
C=CC(=O)N1[C@@H]2CC[C@H]1[C@H](c1ccc3ncnc(Nc4ccc(Oc5cnc6c(c5)ncn6C)c(C)c4)c3n1)C2 [Example 408]	1.1		2.2				23.7 nM	32 nM	498 nM	≥ 5000 nM
C=CC(=O)N1C[C@H]2C[C@H](c3ccc4ncnc(Nc5ccc(Oc6ccc7c(c6)ncn7C)c(C)c5F)c4n3)C[C@H]2C1 [Example 138, 1-((3aR,5s,6aS)-5-(4-((2-fluoro-3-methyl-4-((1-methyl-1H-benzo[d]imidazol-5-yl)oxy)phenyl)amino)pyrido[3,2-d]pyrimidin-6-yl)hexahydrocyclopenta[c]pyrrol-2(1H)-yl)prop-2-en-1-one]	6.8	25.1 nM	1.8	22.1 nM	4170 nM	≥ 5000 nM				
C=CC(=O)N1C[C@H]2CC[C@@H]1C[C@@H]2c1ccc2ncnc(Nc3ccc(Oc4ccn5ncnc5c4)c(C)c3F)c2n1 (racemic) [Example 217, rac-1-((1R,4S,5S)-5-(4-((4-([1,2,4]triazolo[1,5-a]pyridin-7-yloxy)-2-fluoro-3-methylphenyl)amino)pyrido[3,2-d]pyrimidin-6-yl)-2-azabicyclo[2.2.2]octan-2-yl)prop-2-en-1-one]	0.8	11.1 nM	1.9	18.8 nM	1460 nM	1850 nM				
C=CC(=O)N1CCN(c2ccc3ncnc(Nc4cc(C)c(Oc5cnc6c(c5)ncn6C)cc4F)c3n2)C[C@@H]1C1CC1 [Example 355]	1.5		7.2				28.5 nM	158 nM	≥ 10000 nM	≥ 5000 nM
C=CC(=O)N1CCN(c2ccc3ncnc(Nc4cc(C)c(Oc5cnc6c(c5)ncn6C)cc4F)c3n2)C[C@H]1C1CC1 [Example 356]	0.9		4.8				27.1 nM	234 nM	≥ 10000 nM	≥ 5000 nM
C=CC(=O)N1[C@H](C)CN(c2ccc3ncnc(Nc4ccc(Oc5cnc6c(c5)ncn6C)c(C)c4F)c3n2)C[C@@H]1C [Example 442]	1		1.9				29.7 nM	464 nM	≥ 10000 nM	≥ 5000 nM
Cc1c(Oc2ccn3ncnc3c2)ccc(Nc2ncnc3ccc(N4CCN(C#N)C(C)(C)C4)nc23)c1F [Example 245, 4-(4-((4-([1,2,4]triazolo[1,5-a]pyridin-7-yloxy)-2-fluoro-3-methylphenyl)amino)pyrido[3,2-d]pyrimidin-6-yl)-2,2-dimethylpiperazine-1-carbonitrile]	1.2	177 nM	4.2	83.1 nM	≥ 10000 nM	≥ 5000 nM				
C=CC(=O)N1CCC(N(C)c2ccc3ncnc(Nc4ccc(Oc5ccn6ncnc6c5)c(C)c4F)c3n2)CC1 [Example 32, 1-(4-((4-((4-([1,2,4]triazolo[1,5-a]pyridin-7-yloxy)-2-fluoro-3-methylphenyl)amino)pyrido[3,2-d]pyrimidin-6-yl)(methyl)amino)piperidin-1-yl)prop-2-en-1-one]	1.9	131 nM		45.8 nM	5530 nM	≥ 5000 nM				
C=CC(=O)N1CCC(Oc2ccc3ncnc(Nc4ccc(Oc5ccn6ccnc6c5)c(C)c4)c3n2)CC1 [Example 15, 1-(4-((4-((4-(imidazo[1,2-a]pyridin-7-yloxy)-3-methylphenyl)amino)pyrido[3,2-d]pyrimidin-6-yl)oxy)piperidin-1-yl)prop-2-en-1-one]	10.2	12.8 nM		45.5 nM	1680 nM	555 nM				
C=CC(=O)N1C[C@@H](c2ccc3ncnc(Nc4cc(C)c(Oc5ccc6c(c5)ncn6C)cc4F)c3n2)C[C@@H]1C [Example 190, 1-((2S,4S)-4-(4-((2-fluoro-5-methyl-4-((1-methyl-1H-benzo[d]imidazol-5-yl)oxy)phenyl)amino)pyrido[3,2-d]pyrimidin-6-yl)-2-methylpyrrolidin-1-yl)prop-2-en-1-one]	3.9	16 nM		41.1 nM	3800 nM	≥ 5000 nM				
C=CC(=O)N1CCC(Oc2ccc3ncnc(Nc4ccc(Oc5ccn6ncnc6c5)c(C)c4F)c3n2)CC1 [Example 17, 1-(4-((4-((4-([1,2,4]triazolo[1,5-a]pyridin-7-yloxy)-2-fluoro-3-methylphenyl)amino)pyrido[3,2-d]pyrimidin-6-yl)oxy)piperidin-1-yl)prop-2-en-1-one]	2.7	14 nM		48.3 nM	2110 nM	1220 nM				
C#CC1CN(c2ccc3ncnc(Nc4ccc(Oc5ccn6ncnc6c5)c(C)c4F)c3n2)CCN1C(=O)C=C (stereo not drawn) [Example 322]			11.3				15.3 nM	8.1 nM	489 nM	431 nM
C=CC(=O)N1C[C@@H]2C[C@H]1CN(c1ccc3ncnc(Nc4cc(Cl)c(Oc5ccc6c(c5)ncn6C)cc4F)c3n1)C2 [Example 248]		14.4 nM	15.2	108 nM	≥ 10000 nM	≥ 5000 nM				
C=CC(=O)N1C[C@@H]2CN(c3ccc4ncnc(Nc5ccc(Oc6ccn7ncnc7c6)c(C)c5F)c4n3)C[C@@H]21 [Example 318]			12.8				29.8 nM	47.3 nM	1380 nM	2050 nM
C=CC(=O)N1CCN(c2ccc3ncnc(Nc4ccc(Oc5ccn6ncnc6c5)c(C)c4F)c3n2)C[C@H]1COC [Example 358]			8.5				2.9 nM	10 nM	237 nM	83.2 nM
